Measured values as given in ChEMBL document CHEMBL1201862, “PubChem BioAssay data set” (2004).
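Compound exposure: 48 hours, 5 concentrations, 96-well plates. Here, GI50 denotes the concentration required for 50% inhibition of growth.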 Active and inactive are the calls of the source. Rule as the data show it: active = GI50 up to about 1.1 µM and inactive = higher.

How the values were obtained:
Assay in all cases: growth of human tumour cells (NCI), 48 h
786-0 = system: 786-0
HOP-62 = system: HOP-62
ACHN = system: ACHN
HCC 2998 = system: HCC 2998
HCT-15 = system: HCT-15
HOP-92 = system: HOP-92
PC-3 = system: PC-3
MDA-N = system: MDA-N
HCT-116 = system: HCT-116
Hs-578T = system: Hs-578T
SW-620 = system: SW-620
SK-MEL-28 = system: SK-MEL-28
OVCAR-4 = system: OVCAR-4
COLO 205 = system: COLO 205
SK-MEL-5 = system: SK-MEL-5
MOLT-4 = system: MOLT-4
SF-268 = system: SF-268
CAKI-1 = system: CAKI-1
K562 = system: K562
NCI-H460 = system: NCI-H460
OVCAR-8 = system: OVCAR-8
RXF 393 = system: RXF 393
SN12C = system: SN12C
LOX IMVI = system: LOX IMVI
SR = system: SR
OVCAR-3 = system: OVCAR-3
NCI-H23 = system: NCI-H23
SK-MEL-2 = system: SK-MEL-2
NCI-H226 = system: NCI-H226
RPMI-8226 = system: RPMI-8226
A549 = system: A549
HL-60 = system: HL-60
A498 = system: A498
MDA-MB-435 = system: MDA-MB-435
UACC-62 = system: UACC-62
CCRF-CEM = system: CCRF-CEM
TK-10 = system: TK-10
MCF7 = system: MCF7
T47D = system: T47D
M14 = system: M14
NCI-H522 = system: NCI-H522
EKVX = system: EKVX
SF-539 = system: SF-539
SNB-75 = system: SNB-75
HT-29 = system: HT-29
SF-295 = system: SF-295
Malme-3M = system: Malme-3M
IGROV-1 = system: IGROV-1
DU-145 = system: DU-145
SNB-19 = system: SNB-19
U-251 = system: U-251
OVCAR-5 = system: OVCAR-5
BT-549 = system: BT-549
UACC-257 = system: UACC-257
SK-OV-3 = system: SK-OV-3
NCI/ADR-RES = system: NCI/ADR-RES
UO-31 = system: UO-31
KM12 = system: KM12
MDA-MB-231 = system: MDA-MB-231

Q: What does the source list for O=C1CCc2cc(Br)ccc2O1?
A: GI50 (786-0): 29.2 µM (inactive); GI50 (HOP-62): 22.4 µM (inactive); GI50 (ACHN): 49.1 µM (inactive); GI50 (HCC 2998): > 100 µM (inactive); GI50 (HCT-15): > 100 µM; GI50 (HOP-92): 24.9 µM (inactive); GI50 (PC-3): > 100 µM (inactive); GI50 (MDA-N): > 100 µM (inactive); GI50 (HCT-116): 42 µM (inactive); GI50 (Hs-578T): 22.4 µM (inactive); GI50 (SW-620): > 100 µM (inactive); GI50 (SK-MEL-28): > 100 µM (inactive); GI50 (OVCAR-4): > 100 µM (inactive); GI50 (COLO 205): > 100 µM (inactive); GI50 (SK-MEL-5): 26.4 µM (inactive); GI50 (MOLT-4): > 100 µM (inactive); GI50 (SF-268): 23.6 µM (inactive); GI50 (CAKI-1): 38.4 µM (inactive); GI50 (K562): > 100 µM (inactive); GI50 (NCI-H460): > 100 µM (inactive); GI50 (OVCAR-8): > 100 µM (inactive); GI50 (RXF 393): 28.2 µM (inactive); GI50 (SN12C): 92.9 µM (inactive); GI50 (LOX IMVI): 50.5 µM (inactive); GI50 (SR): 83 µM (inactive); GI50 (OVCAR-3): > 100 µM (inactive); GI50 (NCI-H23): 44.7 µM (inactive); GI50 (SK-MEL-2): > 100 µM (inactive); GI50 (NCI-H226): > 100 µM (inactive); GI50 (RPMI-8226): > 100 µM (inactive); GI50 (A549): > 100 µM (inactive); GI50 (HL-60): > 100 µM (inactive); GI50 (A498): 37.8 µM (inactive); GI50 (MDA-MB-435): > 100 µM (inactive); GI50 (UACC-62): > 100 µM (inactive); GI50 (CCRF-CEM): > 100 µM (inactive); GI50 (TK-10): 45.7 µM (inactive); GI50 (MCF7): 12.6 µM (inactive); GI50 (T47D): 73.3 µM (inactive); GI50 (M14): 57 µM (inactive); GI50 (NCI-H522): 32.7 µM (inactive); GI50 (EKVX): 3.81 µM (inactive); GI50 (SF-539): 32.9 µM (inactive); GI50 (SNB-75): 30.4 µM (inactive); GI50 (HT-29): > 100 µM (inactive); GI50 (SF-295): 34 µM (inactive); GI50 (Malme-3M): > 100 µM (inactive); GI50 (IGROV-1): 67.3 µM (inactive); GI50 (DU-145): > 100 µM (inactive); GI50 (SNB-19): 25 µM (inactive); GI50 (U-251): 30 µM (inactive); GI50 (OVCAR-5): > 100 µM (inactive); GI50 (BT-549): 62.8 µM (inactive); GI50 (UACC-257): > 100 µM (inactive)

Q: For O=C1NC(=S)N/C1=C\c1ccc(Cl)cc1, which GI50 (786-0) is on record?
A: Its GI50 is > 100 µM (inactive).

Q: And the GI50 (HOP-62)?
A: Its GI50 is > 100 µM (inactive).

Q: And the GI50 (HCC 2998)?
A: Its GI50 is > 100 µM (inactive).

Q: And the GI50 (HCT-15)?
A: Its GI50 is over 100 µM.

Q: And the GI50 (PC-3)?
A: The GI50 was > 100 µM (inactive).

Q: And the GI50 (MDA-N)?
A: The GI50 was > 100 µM (inactive).

Q: And the GI50 (HCT-116)?
A: Its GI50 is > 100 µM (inactive).

Q: And the GI50 (SK-OV-3)?
A: Its GI50 is > 100 µM (inactive).

Q: What about the GI50 (Hs-578T) of the same molecule?
A: Its GI50 is 50.4 µM (inactive).

Q: What about the GI50 (SW-620) of the same molecule?
A: The GI50 was > 100 µM (inactive).

Q: And the GI50 (SK-MEL-28)?
A: Its GI50 is > 100 µM (inactive).

Q: What about the GI50 (OVCAR-4) of the same molecule?
A: The GI50 was 39.2 µM (inactive).

Q: And the GI50 (COLO 205)?
A: Its GI50 is 80.5 µM (inactive).

Q: What about the GI50 (SK-MEL-5) of the same molecule?
A: The GI50 was 41.8 µM (inactive).

Q: What about the GI50 (MOLT-4) of the same molecule?
A: Its GI50 is 80.2 µM (inactive).

Q: And the GI50 (SF-268)?
A: Its GI50 is > 100 µM (inactive).

Q: And the GI50 (NCI/ADR-RES)?
A: The GI50 was > 100 µM (inactive).

Q: What about the GI50 (CAKI-1) of the same molecule?
A: The GI50 was > 100 µM (inactive).

Q: And the GI50 (OVCAR-8)?
A: Its GI50 is > 100 µM (inactive).

Q: And the GI50 (RXF 393)?
A: The GI50 was > 100 µM (inactive).

Q: What about the GI50 (SN12C) of the same molecule?
A: The GI50 was > 100 µM (inactive).

Q: And the GI50 (LOX IMVI)?
A: The GI50 was > 100 µM (inactive).

Q: What about the GI50 (OVCAR-3) of the same molecule?
A: Its GI50 is > 100 µM (inactive).

Q: And the GI50 (NCI-H23)?
A: Its GI50 is > 100 µM (inactive).

Q: What about the GI50 (SK-MEL-2) of the same molecule?
A: The GI50 was > 100 µM (inactive).

Q: What about the GI50 (NCI-H226) of the same molecule?
A: The GI50 was > 100 µM (inactive).

Q: And the GI50 (RPMI-8226)?
A: The GI50 was 77.3 µM (inactive).

Q: And the GI50 (A549)?
A: Its GI50 is 93.1 µM (inactive).

Q: What about the GI50 (MDA-MB-435) of the same molecule?
A: The GI50 was > 100 µM (inactive).

Q: And the GI50 (UACC-62)?
A: Its GI50 is 46.3 µM (inactive).

Q: What about the GI50 (CCRF-CEM) of the same molecule?
A: Its GI50 is 54.2 µM (inactive).

Q: And the GI50 (TK-10)?
A: Its GI50 is > 100 µM (inactive).

Q: What about the GI50 (UO-31) of the same molecule?
A: The GI50 was 53.7 µM (inactive).

Q: What about the GI50 (KM12) of the same molecule?
A: Its GI50 is 89.7 µM (inactive).

Q: What about the GI50 (MCF7) of the same molecule?
A: Its GI50 is > 100 µM (inactive).

Q: What about the GI50 (T47D) of the same molecule?
A: The GI50 was 42.5 µM (inactive).

Q: And the GI50 (M14)?
A: The GI50 was > 100 µM (inactive).

Q: What about the GI50 (NCI-H522) of the same molecule?
A: Its GI50 is > 100 µM (inactive).

Q: What about the GI50 (EKVX) of the same molecule?
A: Its GI50 is 33.6 µM (inactive).

Q: And the GI50 (SF-539)?
A: The GI50 was > 100 µM (inactive).

Q: And the GI50 (SNB-75)?
A: Its GI50 is > 100 µM (inactive).

Q: What about the GI50 (HT-29) of the same molecule?
A: The GI50 was > 100 µM (inactive).

Q: And the GI50 (SF-295)?
A: The GI50 was > 100 µM (inactive).

Q: What about the GI50 (Malme-3M) of the same molecule?
A: The GI50 was > 100 µM (inactive).

Q: And the GI50 (IGROV-1)?
A: The GI50 was > 100 µM (inactive).

Q: And the GI50 (DU-145)?
A: Its GI50 is 99.8 µM (inactive).

Q: And the GI50 (SNB-19)?
A: The GI50 was > 100 µM (inactive).

Q: And the GI50 (U-251)?
A: The GI50 was > 100 µM (inactive).

Q: What about the GI50 (MDA-MB-231) of the same molecule?
A: The GI50 was > 100 µM (inactive).

Q: What about the GI50 (OVCAR-5) of the same molecule?
A: The GI50 was > 100 µM (inactive).

Q: What about the GI50 (BT-549) of the same molecule?
A: Its GI50 is > 100 µM (inactive).
